How the values were obtained:
[1] = target: T1, Poly [ADP-ribose] polymerase 1 (Homo sapiens, UniProt P09874); assay: Inhibition of human recombinant PARP1 by fluorescence based multiwell assay
[2] = target: Poly [ADP-ribose] polymerase 2 (Mus musculus, UniProt O88554); assay: Inhibition of mouse recombinant PARP2 assessed as radioactivity incorporated from [adenine-2,8-3H]NAD into proteins by liquid scintillation spectrometry
[3] = Kinetic aqueous solubility of the compound at pH 7.4 at 23 degC; format: physicochemical; details: buffer, read-out: Kinetic_solubility
[4] = target: T2, Poly [ADP-ribose] polymerase tankyrase-1 (Homo sapiens, UniProt O95271); assay: Inhibition of tankyrase-1 function in human HeLa cells; format: cell-based
T2 sequence (O95271 whole entry): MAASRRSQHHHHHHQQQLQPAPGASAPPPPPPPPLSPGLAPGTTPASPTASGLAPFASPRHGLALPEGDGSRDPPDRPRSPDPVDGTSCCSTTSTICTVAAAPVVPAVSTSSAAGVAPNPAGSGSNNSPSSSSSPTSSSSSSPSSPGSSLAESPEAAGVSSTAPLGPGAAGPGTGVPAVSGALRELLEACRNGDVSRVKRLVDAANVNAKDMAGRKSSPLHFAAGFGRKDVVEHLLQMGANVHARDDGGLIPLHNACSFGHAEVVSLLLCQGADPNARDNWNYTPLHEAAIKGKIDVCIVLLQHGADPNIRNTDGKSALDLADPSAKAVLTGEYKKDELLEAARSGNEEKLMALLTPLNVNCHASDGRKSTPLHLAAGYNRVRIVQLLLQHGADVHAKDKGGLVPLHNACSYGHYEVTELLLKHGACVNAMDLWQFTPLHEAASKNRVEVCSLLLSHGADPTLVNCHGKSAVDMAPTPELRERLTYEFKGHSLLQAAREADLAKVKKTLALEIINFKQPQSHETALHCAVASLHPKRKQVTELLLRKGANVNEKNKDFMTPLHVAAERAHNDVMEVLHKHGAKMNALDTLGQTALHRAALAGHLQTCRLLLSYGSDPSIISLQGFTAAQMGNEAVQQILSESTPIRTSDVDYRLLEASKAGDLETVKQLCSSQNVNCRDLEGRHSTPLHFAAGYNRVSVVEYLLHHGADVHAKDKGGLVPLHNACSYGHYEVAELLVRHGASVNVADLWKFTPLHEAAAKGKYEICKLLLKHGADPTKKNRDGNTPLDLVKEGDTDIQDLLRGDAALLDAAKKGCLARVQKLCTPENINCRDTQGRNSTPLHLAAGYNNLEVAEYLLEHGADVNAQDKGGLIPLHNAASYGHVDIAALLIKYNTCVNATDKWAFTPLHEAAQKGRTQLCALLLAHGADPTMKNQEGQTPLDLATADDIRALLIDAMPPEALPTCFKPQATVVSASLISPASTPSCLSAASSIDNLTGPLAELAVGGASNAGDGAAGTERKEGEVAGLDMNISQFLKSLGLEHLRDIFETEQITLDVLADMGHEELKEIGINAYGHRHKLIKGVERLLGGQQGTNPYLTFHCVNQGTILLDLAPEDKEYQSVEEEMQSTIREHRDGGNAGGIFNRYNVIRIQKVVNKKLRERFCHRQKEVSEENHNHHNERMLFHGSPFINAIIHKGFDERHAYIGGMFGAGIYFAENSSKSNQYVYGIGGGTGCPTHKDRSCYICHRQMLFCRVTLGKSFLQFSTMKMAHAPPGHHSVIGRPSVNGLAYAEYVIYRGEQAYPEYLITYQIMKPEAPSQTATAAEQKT

[5] = Clearance in rat hepatocytes assessed per 10^6 cells; format: ADME, cell-based, Hepatocyte; details: read-out: CLH
[6] = Clearance in human hepatocytes assessed per 10^6 cells; format: ADME, cell-based, Hepatocyte; details: read-out: CLH
[7] = tested on: Rattus norvegicus; assay: Clearance in Sprague-Dawley rat at 10 mg/kg, iv; format: ADME, organism-based; parameters: dose 10 mg/kg, route intravenous; details: in vivo
[8] = Volume of distribution in Sprague-Dawley rat at 10 mg/kg, iv; format: ADME, organism-based; parameters: dose 10 mg/kg, route intravenous; details: in vivo
[9] = AUC (0 to infinity) in Sprague-Dawley rat at 10 mg/kg, iv; format: ADME, organism-based; parameters: time infinity, dose 10 mg/kg, route intravenous; details: plasma
[10] = Half life in Sprague-Dawley rat at 10 mg/kg, iv; format: ADME, organism-based; parameters: dose 10 mg/kg, route intravenous; details: in vivo
[11] = Ratio of drug level in brain to plasma in Sprague-Dawley rat at 10 mg/kg, iv; format: ADME, organism-based; parameters: dose 10 mg/kg, route intravenous; details: read-out: BPR
[12] = Cmax in Sprague-Dawley rat brain at 10 mg/kg, iv; format: ADME, organism-based; parameters: dose 10 mg/kg, route intravenous
[13] = Fraction unbound in Sprague-Dawley rat brain at 10 mg/kg, iv; format: ADME, organism-based; parameters: dose 10 mg/kg, route intravenous
[14] = tested on: Brain; assay: Free drug level in Sprague-Dawley rat brain at 10 mg/kg, iv; format: ADME, organism-based; parameters: dose 10 mg/kg, route intravenous; details: in vivo
[15] = target: hERG (KCNH2) (Homo sapiens, UniProt Q12809); assay: Inhibition of human ERG at 10 uM
[16] = target: T1, Poly [ADP-ribose] polymerase 1; assay: Inhibition of human PARP1 in HEK293 cells assessed as prevention of in MNNG-induced ATP depletion; format: cell-based
[17] = tested on: Cortical neurone; assay: Neuroprotective activity in mouse mixed cortical cells assessed as reduction in oxygen-glucose deprivation-induced LDH release; format: functional, cell-based
[18] = tested on: Rattus norvegicus; assay: Neuroprotective activity in transient middle cerebral artery occlusion Sprague-Dawley rat model assessed as reduction in brain infarct volume at 0.1 mg/kg, ip 3 times, starting 4 hrs after occlusion relative to vehicle treated control; format: functional; details: route intraperitoneal
[19] = tested on: Rattus norvegicus; assay: Neuroprotective activity in transient middle cerebral artery occlusion Sprague-Dawley rat model assessed as reduction in brain infarct volume at 1 mg/kg, ip 3 times, starting 4 hrs after occlusion relative to vehicle treated control; format: functional; details: route intraperitoneal
[20] = tested on: Rattus norvegicus; assay: Neuroprotective activity in transient middle cerebral artery occlusion Sprague-Dawley rat model assessed as reduction in brain infarct volume at 10 mg/kg, ip 3 times, starting 4 hrs after occlusion relative to vehicle treated control; format: functional; details: route intraperitoneal
[21] = tested on: Rattus norvegicus; assay: Neuroprotective activity in permanent middle cerebral artery occlusion Sprague-Dawley rat model assessed as reduction in brain infarct volume at 1 mg/kg, iv 3 times at 30 mins, 3.5 hrs and 6 hrs after occlusion relative to vehicle treated control; format: functional
[22] = Permeability of the compound by PAMPA; format: physicochemical; details: read-out: permeability
[23] = target: Cytochrome P450 2D6 (Homo sapiens, UniProt P10635); assay: Inhibition of CYP2D6 (unknown origin); format: ADME
[24] = Half life in rat liver microsomes; format: ADME
[25] = Half life in human liver microsomes; format: ADME

T1 sequence (P09874 whole entry): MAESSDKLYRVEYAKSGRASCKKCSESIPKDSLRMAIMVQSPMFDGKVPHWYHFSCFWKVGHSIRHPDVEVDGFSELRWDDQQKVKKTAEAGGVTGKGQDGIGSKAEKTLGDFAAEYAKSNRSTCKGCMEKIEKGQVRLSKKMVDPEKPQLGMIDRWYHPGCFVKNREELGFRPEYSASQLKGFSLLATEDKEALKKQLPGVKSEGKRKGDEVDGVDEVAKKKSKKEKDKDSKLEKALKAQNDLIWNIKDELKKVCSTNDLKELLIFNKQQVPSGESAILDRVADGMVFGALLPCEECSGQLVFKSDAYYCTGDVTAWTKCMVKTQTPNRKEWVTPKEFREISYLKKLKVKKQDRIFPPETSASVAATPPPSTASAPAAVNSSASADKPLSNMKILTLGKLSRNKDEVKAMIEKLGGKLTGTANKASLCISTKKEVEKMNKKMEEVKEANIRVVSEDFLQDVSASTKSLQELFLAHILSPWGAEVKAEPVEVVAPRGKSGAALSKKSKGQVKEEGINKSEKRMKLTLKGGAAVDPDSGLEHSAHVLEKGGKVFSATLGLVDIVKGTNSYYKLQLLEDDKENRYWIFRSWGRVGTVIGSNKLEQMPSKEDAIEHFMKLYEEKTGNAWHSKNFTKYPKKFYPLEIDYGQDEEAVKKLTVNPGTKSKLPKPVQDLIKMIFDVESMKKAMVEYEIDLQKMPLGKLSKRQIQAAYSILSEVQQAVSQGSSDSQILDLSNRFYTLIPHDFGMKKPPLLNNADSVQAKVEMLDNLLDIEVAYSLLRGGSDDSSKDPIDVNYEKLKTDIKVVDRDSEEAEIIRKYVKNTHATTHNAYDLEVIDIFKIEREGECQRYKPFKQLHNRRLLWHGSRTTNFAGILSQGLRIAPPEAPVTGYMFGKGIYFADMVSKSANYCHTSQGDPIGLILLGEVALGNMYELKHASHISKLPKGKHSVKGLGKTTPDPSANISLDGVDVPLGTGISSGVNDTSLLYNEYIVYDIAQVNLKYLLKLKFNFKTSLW
Poly [ADP-ribose] polymerase 2, sequence (O88554 whole entry): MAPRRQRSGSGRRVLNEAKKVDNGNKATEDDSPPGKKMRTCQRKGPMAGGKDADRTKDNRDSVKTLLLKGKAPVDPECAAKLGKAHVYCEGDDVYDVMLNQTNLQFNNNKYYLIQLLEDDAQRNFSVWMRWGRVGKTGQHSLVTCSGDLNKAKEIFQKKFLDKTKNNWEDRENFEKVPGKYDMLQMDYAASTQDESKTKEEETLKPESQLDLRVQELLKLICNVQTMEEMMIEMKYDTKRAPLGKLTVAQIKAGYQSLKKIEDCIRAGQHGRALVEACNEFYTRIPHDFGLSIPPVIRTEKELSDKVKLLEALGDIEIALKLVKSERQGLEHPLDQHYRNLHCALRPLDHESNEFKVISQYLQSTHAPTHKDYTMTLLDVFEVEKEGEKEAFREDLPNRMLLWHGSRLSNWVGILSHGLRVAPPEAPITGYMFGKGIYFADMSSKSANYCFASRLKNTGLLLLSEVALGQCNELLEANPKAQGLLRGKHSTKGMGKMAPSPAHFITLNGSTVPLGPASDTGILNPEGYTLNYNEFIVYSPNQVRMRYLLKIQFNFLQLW
hERG (KCNH2), sequence (Q12809 whole entry): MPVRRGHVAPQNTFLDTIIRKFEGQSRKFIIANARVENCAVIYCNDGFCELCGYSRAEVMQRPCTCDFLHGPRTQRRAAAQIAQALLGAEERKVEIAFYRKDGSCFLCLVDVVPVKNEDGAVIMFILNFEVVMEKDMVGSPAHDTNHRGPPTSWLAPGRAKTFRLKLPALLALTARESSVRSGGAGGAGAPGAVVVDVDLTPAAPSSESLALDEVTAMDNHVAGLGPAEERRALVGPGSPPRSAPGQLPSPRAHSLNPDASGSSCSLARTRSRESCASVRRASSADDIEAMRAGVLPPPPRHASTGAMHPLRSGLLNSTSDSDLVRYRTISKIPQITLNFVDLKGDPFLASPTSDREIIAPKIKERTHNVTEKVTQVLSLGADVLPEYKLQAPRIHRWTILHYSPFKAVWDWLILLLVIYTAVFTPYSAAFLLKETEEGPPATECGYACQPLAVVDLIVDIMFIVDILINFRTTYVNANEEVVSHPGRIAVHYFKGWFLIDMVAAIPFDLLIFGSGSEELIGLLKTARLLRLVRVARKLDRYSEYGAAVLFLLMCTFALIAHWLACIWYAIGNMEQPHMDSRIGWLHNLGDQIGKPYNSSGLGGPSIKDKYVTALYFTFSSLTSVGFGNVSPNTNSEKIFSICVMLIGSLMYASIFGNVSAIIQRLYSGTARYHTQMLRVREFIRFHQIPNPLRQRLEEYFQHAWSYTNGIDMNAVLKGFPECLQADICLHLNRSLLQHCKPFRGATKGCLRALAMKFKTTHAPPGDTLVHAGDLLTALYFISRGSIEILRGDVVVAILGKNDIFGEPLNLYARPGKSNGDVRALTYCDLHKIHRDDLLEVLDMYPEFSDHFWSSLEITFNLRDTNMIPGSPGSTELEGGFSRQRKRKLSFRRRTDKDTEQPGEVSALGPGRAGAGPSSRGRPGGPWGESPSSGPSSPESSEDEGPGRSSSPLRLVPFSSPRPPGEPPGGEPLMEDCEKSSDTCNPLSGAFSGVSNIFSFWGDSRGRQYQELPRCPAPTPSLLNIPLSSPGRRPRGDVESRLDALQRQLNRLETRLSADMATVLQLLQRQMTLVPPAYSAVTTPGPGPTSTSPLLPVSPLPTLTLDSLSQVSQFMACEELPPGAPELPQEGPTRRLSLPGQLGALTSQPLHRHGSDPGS
Cytochrome P450 2D6, sequence (P10635 whole entry): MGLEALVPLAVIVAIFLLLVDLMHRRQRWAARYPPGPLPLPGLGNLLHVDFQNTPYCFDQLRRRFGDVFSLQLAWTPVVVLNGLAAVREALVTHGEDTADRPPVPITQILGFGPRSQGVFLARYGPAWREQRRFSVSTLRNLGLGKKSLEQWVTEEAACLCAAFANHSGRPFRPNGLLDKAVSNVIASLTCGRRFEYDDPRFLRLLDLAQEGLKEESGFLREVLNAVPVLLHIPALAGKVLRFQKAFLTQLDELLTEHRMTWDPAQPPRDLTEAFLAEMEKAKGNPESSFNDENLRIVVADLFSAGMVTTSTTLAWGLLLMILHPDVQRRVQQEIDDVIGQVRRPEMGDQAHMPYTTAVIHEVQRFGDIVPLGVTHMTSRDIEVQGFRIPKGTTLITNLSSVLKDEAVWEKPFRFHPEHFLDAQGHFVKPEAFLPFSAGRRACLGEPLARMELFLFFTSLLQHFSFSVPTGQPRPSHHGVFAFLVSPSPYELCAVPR

**Q.** For `O=c1[nH]c2sccc2c2ccccc12`, which IC50 [1] is on record?
**A.** Its IC50 is 900 nM.

**Q.** What about the IC50 [2] of the same molecule?
**A.** Its IC50 is 600 nM.

**Q.** And the solubility kinetic [3]?
**A.** Its solubility kinetic is less than 100 µg/mL.

**Q.** For `CN(C)Cc1cc2c([nH]c(=O)c3ccccc32)s1`, which IC50 [1] is on record?
**A.** Its IC50 is 180 nM.

**Q.** And the IC50 [2]?
**A.** Its IC50 is 300 nM.

**Q.** And the IC50 [4]?
**A.** The IC50 was greater than 100000 nM.

**Q.** Which hepatocyte CLint [5] does the source give for `Br.CN(C)Cc1cc2c([nH]c(=O)c3cccc(O)c32)s1` here?
**A.** Its hepatocyte CLint is 26.4 µL/min/1e6 cells.

**Q.** What about the hepatocyte CLint [6] of the same molecule?
**A.** The hepatocyte CLint was 22.2 µL/min/1e6 cells.

**Q.** And the clearance [7]?
**A.** The clearance was 69 mL/min/kg.

**Q.** What about the Vd [8] of the same molecule?
**A.** Its Vd is 2.1 L/kg.

**Q.** And the AUC(0-inf) [9]?
**A.** Its AUC(0-inf) is 1680 ng·h/mL.

**Q.** And the half-life [10]?
**A.** Its half-life is 48 min.

**Q.** And the Kp [11]?
**A.** Its Kp is 0.26.

**Q.** What about the Cmax [12] of the same molecule?
**A.** The Cmax was 678 nM.

**Q.** And the fraction unbound [13]?
**A.** Its fraction unbound is 0.13.

**Q.** What about the “Drug uptake(free)” value [14] of the same molecule?
**A.** The value was 87 nM.

**Q.** And the inhibition at 10 µM [15]?
**A.** The inhibition at 10 µM was 14%.

**Q.** And the IC50 [1]?
**A.** The IC50 was 29 nM.

**Q.** And the IC50 [2]?
**A.** The IC50 was 38 nM.

**Q.** What about the IC50 [4] of the same molecule?
**A.** The IC50 was greater than 100000 nM.

**Q.** What about the EC50 [16] of the same molecule?
**A.** The EC50 was 14 nM.

**Q.** And the solubility kinetic [3]?
**A.** The solubility kinetic was 70 µg/mL.

**Q.** And the EC50 [17]?
**A.** Its EC50 is 300 nM.

**Q.** And the inhibition in vivo at 0.1 mg/kg [18]?
**A.** The inhibition in vivo at 0.1 mg/kg was 17.5%.

**Q.** And the inhibition in vivo at 1 mg/kg [19]?
**A.** The inhibition in vivo at 1 mg/kg was 55%.

**Q.** And the inhibition in vivo at 10 mg/kg [20]?
**A.** The inhibition in vivo at 10 mg/kg was 62%.

**Q.** And the inhibition in vivo at 1 mg/kg [21]?
**A.** The inhibition in vivo at 1 mg/kg was 42%.

**Q.** What about the Papp [22] of the same molecule?
**A.** The Papp was 4.6 ×10⁻⁶ cm/s.

**Q.** What about the IC50 [23] of the same molecule?
**A.** Its IC50 is 170000 nM.

**Q.** What about the half-life [24] of the same molecule?
**A.** Its half-life is 3 min.

**Q.** And the half-life [25]?
**A.** The half-life was 30 min.

**Q.** For `O=c1[nH]c2ccccc2c2ccccc12`, which EC50 [16] is on record?
**A.** Its EC50 is 945 nM.

**Q.** What about the EC50 [17] of the same molecule?
**A.** The EC50 was 2370 nM.

Source: ChEMBL document CHEMBL3217609, “Discovery and characterization of novel potent PARP-1 inhibitors endowed with neuroprotective properties: From TIQ-A to [sequence]” (Medchemcomm, 2011)
